Test results reported in patent US20220175701A1, “TREATMENT OF MAJOR DEPRESSIVE DISORDER AND SUICIDAL IDEATIONS THROUGH STIMULATION OF HIPPOCAMPAL NEUROGENESIS UTILIZING PLANT-BASED APPROACHES” (THERAPEUTIC SOLUTIONS INTERNATIONAL, INC., priority 2020, published 2022).
Read-outs that look alike come from different tables or passages of the source.

Legend:
[1] = tested on: mice with experimental colitis; details: cited from earlier work
[2] = tested on: lipopolysaccharide-activated macrophages; details: cited from earlier work
macrophage foam cells = details: cited from earlier work
[3] = tested on: rats subjected to myocardial ischemia and reperfusion; details: EGCG 10 mg/kg intravenously then 10 mg/kg/h infusion; cited from earlier work
[4] = tested on: BALB/c mice exposed to random stress; experiment: Endogenous neurogenesis in stressed mice, BRDU incorporation assessed by histology; type: in vivo; details: stressed BALB/c mice treated daily; FIG. 1
Experimental: FIG. 1 is a bar graph showing the results of stressed mice that were treated with Fluoxetine or QuadraMune™ daily. Assessment of endogenous neurogenesis was performed by administering BRDU and assessment of incorporation by histology.
BALB/c mice where exposed to random stress 4 times a day by spinning by the tail for 15 seconds. Controls where not stressed. Stressed mice where treated with Prozac or QuadraMune™ daily. Assessment of endogenous neurogenesis was performed by administering BRDU and assessment of incorporation by histology.

[5] = cited from earlier work
[6] = tested on: BALB/c mice with LPS-induced ARDS; details: cited from earlier work
[7] = tested on: primary peritoneal macrophages; details: cited from earlier work
[8] = tested on: LPS-challenged macrophages; details: pre-incubated 6 h with SFN 0 to 50 μM, then LPS 24 h; cited from earlier work
[9] = tested on: mice challenged with endotoxin (LPS 0111:B4) or live Escherichia coli; details: cited from earlier work; for concentrations of IL-la: controls 1187.0±278.64
[10] = tested on: lipopolysaccharide-induced inflammatory reactions; details: cited from earlier work
cancer patients = experiment: Pterostilbene (nanostilbene) in cancer patients, NK cell activity and interferon gamma; type: in vivo, human; details: administered in the form of nanostilbene
Excerpt: Additionally, pterostilbene has shown to inhibit inflammatory cytokines associated with ARDS.

apoE(−/−) mice = details: PT injection; cited from earlier work
[11] = tested on: human umbilical vein VECs (HUVECs); details: cited from earlier work
[12] = sulforaphane 50 mg/kg, LPS 5 mg/kg

For `O=C(O[C@@H]1Cc2c(O)cc(O)cc2O[C@@H]1c1cc(O)c(O)c(O)c1)c1cc(O)c(O)c(O)c1` [EGCG, Epigallocatechin Gallate], the “disease activity index (DAI) and spleen index (SI)” value ([1]; 50 and 100 mg/kg/day EGCG groups vs MD group) is listed as “decreased”, the “HIF-1α and STATS protein expression in the colon” value ([1]; mouse, in vivo) is listed as “decreasing” and the “plasma levels of IL-10 and TGF-β1” value ([1]; mouse, in vivo) is listed as “increasing”. For the same molecule, the “release of IL-6 and IL-17” value ([1]; mouse, in vivo) was “reduce”, the “iNOS activity in soluble extracts” value ([2]; EGCG 5 and 10 microM for 6-24 hr, vs macrophages without EGCG) was “significantly lower” and the NO production ([2]; cells cotreated with EGCG and LPS) was “Inhibition”. The “activation of nuclear factor-kappaB” value ([2]; electrophoretic mobility shift assay) was “blocked”, the “TNF-α-induced nuclear factor-κB (NF-κB) activity” value (macrophage foam cells) was “inhibition” and the “TNF-α-induced downregulation of ABCA1 and decrease in cholesterol efflux to apoA 1” value (macrophage foam cells; pretreatment with EGCG) was “attenuated”. For the same molecule, the “myocardial damage and myeloperoxidase activity” value [3] was “reduced” and the “plasma IL-6 and creatine phosphokinase levels” value [3] was “decreased”.
With `CNCCC(Oc1ccc(C(F)(F)F)cc1)c1ccccc1` (stereo not drawn) [Prozac, Fluoxetine] the “endogenous neurogenesis (BRDU incorporation by histology)” value [4] was “Augmented neurogenesis”.
In the case of `Oc1ccc(C=Cc2cc(O)cc(O)c2)cc1` [resveratrol, reference compound], the bioavailability ([5]; animal studies) is listed as 20%.
In the case of `C[S+]([O-])CCCCN=C=S` (stereo not drawn) [sulforaphane, 1-isothiocyanato-4-(methylsulfinyl)-butane], the “serum levels of interleukin-6 (IL-6) and tumor necrosis factor-α (TNF-α)” value ([6]; ELISA, sulforaphane 50 mg/kg) is listed as “significantly decreased”, the “Nrf2/antioxidant response element (ARE) pathway” value ([6]; pre-treatment) is listed as “activated” and the “lactate dehydrogenase (LDH) activity” value [6, 12] is listed as “significantly decreased”. The “wet-to-dry ratio of the lungs” value [6, 12] was “significantly decreased”, the “nuclear factor-κB protein expression” value ([6]; sulforaphane 50 mg/kg) was “significantly decreased” and the “prostaglandin E2 (PGE2) production, COX-2 and MMP-9 protein expression, iNOS activity” value ([6]; sulforaphane 50 mg/kg) was “significantly inhibited”. The HO-1 expression ([7]; LPS-stimulated Nrf2 (+/+) primary peritoneal macrophages) was “significantly augmented”, the anti-inflammatory effect ([7]; Nrf2 (−/−) primary peritoneal macrophages) was “attenuated” and the “LPS-stimulated mRNA expression, protein expression and production of TNF-alpha, IL-1beta, COX-2 and iNOS” value ([7]; pretreatment, Nrf2 (+/+) primary peritoneal macrophages) was “potently inhibited”. For the same molecule, the “expression of NO and cytokines” value [8] was “able to prevent”.
In the case of `CC1=CC(=O)C(C(C)C)=CC1=O` [thymoquinone], the “concentrations of IL-la” value ([9]; 0.75 mg/kg thymoquinone dose) is listed as 310.8 ± 70.93 pg/mL, the IL-10 levels ([9]; 0.75 mg/kg thymoquinone, controls 5505.2±333.96) is listed as 2885.0 ± 553.98 pg/mL and the “concentrations of IL-la” value ([9]; 1 mg/kg group) is listed as 428.3 ± 71.32 pg/mL. For the same molecule, the “levels of TNF-α and IL-2” value ([9]; P values=0.1817 and 0.0851) was “relatively lower levels”, the “renal and hepatic biomarker profiles” value ([9]; mouse, in vivo) was “improved” and the reduced mortality ([9]; thymoquinone before endotoxin or E. coli sepsis in mice) was 80-90%. For the same molecule, the “concentration of nitric oxide” value [10] was “reduced significantly”.
In the case of “trans-3,5-dimethoxy-4-hydroxystilbene [pterostilbene]”, the NK cell activity (cancer patients) is listed as “increased”, the interferon gamma production (cancer patients) is listed as “increased” and the “number of TUNEL-positive cells in the endothelium of atherosclerotic plaque” value (apoE(−/−) mice) is listed as “strongly decreased”. The bioavailability ([5]; rat, in vivo) was 80%, the “oxLDL-induced cell shrinkage, chromatin condensation, nuclear fragmentation and cell apoptosis” value ([11]; HUVECs, oxLDL 200 μg/ml) was “protected against such injuries” and the “expression of lectin-like oxLDL receptor-1 (LOX-1)” value ([11]; in vitro and in vivo) was “inhibited”.
